# Results published in patent US20230192700A1, “PYRAZOLOPYRAZINES ACTING ON CANCERS VIA INHIBITION OF CDK12” (Bayer Aktiengesellschaft, priority 2020, published 2023).
# Like-named read-outs stand apart in the source and are kept apart here.
# What was measured:
# CDK2/CyclinE = target: T1, CDK2/CyclinE (Homo sapiens, UniProt P24941); test: CDK2/CycE kinase assay (TR-FRET); type: biochemical; conditions: 2 mM ATP (high ATP); median; read-out: CDK2/CyclinE, 2 mM ATP (high ATP) IC50 - [mol/l] (median)
# T1 construct: GST; purchased ProQinase GmbH (Freiburg, Germany); host or cells: insect cells (Sf9)
# Text: 2.4 CDK2/CycE Kinase Assay
# CDK2/CycE-inhibitory activity of compounds of the present invention was quantified employing the CDK2/CycE TR-FRET assay as described in the following paragraphs.
# Recombinant fusion proteins of GST and human CDK2 and of GST and human CycE, expressed in insect cells (Sf9) and purified by Glutathion-Sepharose affinity chromatography, were purchased from ProQinase GmbH (Freiburg, Germany). As substrate for the kinase reaction biotinylated peptide biotin-Ttds-YISPLKSPYKISEG (C-terminus in amid form) was used which can be purchased e.g. form the company JERINI peptide technologies (Berlin, Germany).
# For the assay 50 nanoL of a 100 fold concentrated solution of the test compound in DMSO was pipetted into a black low volume 384 well microtiter plate or a black 1536 well microtiter plate (both Greiner Bio-One, Frickenhausen, Germany), 2 microL of a solution of CDK2/CycE in aqueous assay buffer [50 millimol/L Tris/HCl pH 8.0, 10 millimol/L MgCl2, 1.0 millimol/L dithiothreitol, 0.1 millimol/L sodium ortho-vanadate, 0.01% (v/v) Nonidet-P40 (Sigma)] were added and the mixture was incubated for 15 min at 22° C. to allow pre-binding of the test compounds to the enzyme before the start of the kinase reaction. Then the kinase reaction was started by the addition of 3 microL of a solution of adenosine-tri-phosphate (ATP, 3.33 millimol/L=>final conc. in the 5 microL assay volume is 2 millimol/L) and substrate (1.25 micromol/L=>final conc. in the 5 microL assay volume is 0.75 micromol/L) in assay buffer and the resulting mixture was incubated for a reaction time of 25 min at 22° C. The concentration of CDK2/CycE was adjusted depending of the activity of the enzyme lot and was chosen appropriate to have the assay in the linear range, typical concentrations were in the range of 10 ng/mL. The reaction was stopped by the addition of 3 microL of a solution of TR-FRET detection reagents (0.333 micromol/L streptavidine-XL665 [Cisbio Bioassays, Codolet, France] and 1.67 nanomol/L anti-RB(pSer807/pSer811)-antibody from BD Pharmingen [#558389] and 2 nanomol/L LANCE EU-W1024 labeled anti-mouse IgG antibody [Perkin-Elmer, product no. AD0077, as an alternative a Terbium-cryptate-labeled anti-mouse IgG antibody from Cisbio Bioassays can be used]) in an aqueous EDTA-solution (167 millimol/L EDTA, 0.2% (w/v) bovine serum albumin in 100 millimol/L HEPES pH 7.5).
# The resulting mixture was incubated 1 h at 22° C. to allow the formation of complex between the phosphorylated biotinylated peptide and the detection reagents. Subsequently the amount of phosphorylated substrate was evaluated by measurement of the resonance energy transfer from the Eu-chelate to the streptavidine-XL. Therefore, the fluorescence emissions at 620 nm and 665 nm after excitation at 350 nm was measured in a TR-FRET reader, e.g. a Pherastar (BMG Labtechnologies, Offenburg, Germany) or a Viewlux (Perkin-Elmer). The ratio of the emissions at 665 nm and at […] was taken as the measure for the amount of phosphorylated substrate. The data were normalised (enzyme reaction without inhibitor=0% inhibition, all other assay components but no enzyme=100% inhibition).
# [1] = test system: BRCA1 mRNA expression in MDA-MB-231 cells; test: qRT-PCR assay: inhibition of BRCA1 mRNA expression in MDA-MB-231 cells; type: cell-based, human; conditions: 24 h exposure, BRCA1 mRNA normalised to GAPDH, median, read-out: RTqPCR-MDA-MB-231 IC50 [mol/l] BRCA1 (median)
# Experimental: 3. qRT-PCR Assay: BRCA1, ATR, MCL1 in MDA-MB-231, CAL-120
# Tissue cultured human MDA-MB-231 human breast cancer cells were plated in 500 microL per well at 200,000 cells/well in a 24 well microtiter plate. After 24 h, the cells were exposed continuously for 24 h to test substances (substances were added with Tecan HP D300 Dispenser). RNA was prepared using Qiagen RNeasy MiniKit (#74106), RNA was quantified using a NanoDrop Equipment, and 600 nano gamms of RNA was coverted to cDNA using a SuperScript VILO kit (Thermofisher #11755050) followed by qPCR amplification. BRCA1 and ATR gene expression was measured by RT-qPCR and normalised to GAPDH housekeeping gene expression. qPCR primer sets have been purchased from Thermo Fisher Scientific/Applied Biosystems: BRCA1, # Hs 01556193; ATR, #Hs 00992123; GAPDH, #Hs 03929097.
Structure (SMILES),IC50 (CDK2/CyclinE) [nM],"IC50 ([1]; Homo sapiens, MDA-MB-231, 24 h) [nM]",IC50 [1] [nM]
"CN1CCC(n2nc(NCc3nc4cc(Cl)c(Cl)cc4[nH]3)c3ncc(C4CC4)nc32)CC1 [Example 19, 6-cyclopropyl-N-[(5,6-dichloro-1H-benzimidazol-2-yl)methyl]-1-(1-methylpiperidin-4-yl)-1H-pyrazolo[3,4-b]pyrazin-3-amine]",> 20000,8.59,
"Cc1cccc2[nH]c(CNc3nn(C4CCOCC4)c4nc(C5CC5)cnc34)nc12 [Example 33, 6-cyclopropyl-N-[(4-methyl-1H-benzimidazol-2-yl)methyl]-1-(oxan-4-yl)-1H-pyrazolo[3,4-b]pyrazin-3-amine]",> 20000,16.9,
"Cc1ccc2[nH]c(CNc3nn(C4CCN(C)CC4)c4nc(C5CC5)cnc34)nc2c1C [Example 28, 6-cyclopropyl-N-[(4,5-dimethyl-1H-benzimidazol-2-yl)methyl]-1-(1-methylpiperidin-4-yl)-1H-pyrazolo[3,4-b]pyrazin-3-amine]",> 20000,16.8,
"CN1CCC(n2nc(NCc3nc4c(F)cccc4[nH]3)c3ncc(C4CC4)nc32)CC1 [Example 3, 6-cyclopropyl-N-[(4-fluoro-1H-benzimidazol-2-yl)methyl]-1-(1-methylpiperidin-4-yl)-1H-pyrazolo[3,4-b]pyrazin-3-amine]",> 20000,8.64,
"c1ccc2[nH]c(CNc3nn(C4CCOC4)c4nc(C5CC5)cnc34)nc2c1 (single isomer, unassigned) [Example 17, (+) or (−)-N-[(1H-benzimidazol-2-yl)methyl]-6-cyclopropyl-1-(oxolan-3-yl)-1H-pyrazolo[3,4-b]pyrazin-3-amine]",> 20000,10.9,
"CN1CCC(n2nc(NCc3nc4ccccc4[nH]3)c3ncc(C4CC4)nc32)C1 (single isomer, unassigned) [Example 78, (+) or (−)-N-[(1H-benzimidazol-2-yl)methyl]-6-cyclopropyl-1-(1-methylpyrrolidin-3-yl)-1H-pyrazolo[3,4-b]pyrazin-3-amine]",> 20000,15.6,
"CC(C)(O)CCn1nc(NCc2nc3ccccc3[nH]2)c2ncc(C3CC3)nc21 [Example 76, 4-(3-{[(1H-benzimidazol-2-yl)methyl]amino}-6-cyclopropyl-1H-pyrazolo[3,4-b]pyrazin-1-yl)-2-methylbutan-2-ol]",> 20000,7.4,
"Fc1cccc2[nH]c(CNc3nn(C4CCOCC4)c4nc(C5CC5)cnc34)nc12 [Example 23, 6-cyclopropyl-N-[(4-fluoro-1H-benzimidazol-2-yl)methyl]-1-(oxan-4-yl)-1H-pyrazolo[3,4-b]pyrazin-3-amine]",16400,30.9,
"CC(C)n1nc(NCc2nc3ccccc3[nH]2)c2ncc(C3CC3)nc21 [Example 14, N-[(1H-benzimidazol-2-yl)methyl]-6-cyclopropyl-1-(propan-2-yl)-1H-pyrazolo[3,4-b]pyrazin-3-amine]",> 20000,42.9,
"c1ccc2[nH]c(CNc3nn(C4CCCC4)c4nc(C5CC5)cnc34)nc2c1 [Example 39, N-[(1H-benzimidazol-2-yl)methyl]-1-cyclopentyl-6-cyclopropyl-1H-pyrazolo[3,4-b]pyrazin-3-amine]",> 20000,107,
"CN1CCC(n2nc(NCc3nc4cc(C(F)(F)F)ccc4[nH]3)c3ncc(C4CC4)nc32)CC1 [Example 25, 6-cyclopropyl-1-(1-methylpiperidin-4-yl)-N-{[5-(trifluoromethyl)-1H-benzimidazol-2-yl]methyl}-1H-pyrazolo[3,4-b]pyrazin-3-amine]",> 20000,5.88,
"COCCC(C)n1nc(NCc2nc3ccccc3[nH]2)c2ncc(C3CC3)nc21 (single isomer, unassigned; (-)) [Example 58, (−)-N-[(1H-benzimidazol-2-yl)methyl]-6-cyclopropyl-1-[4-methoxybutan-2-yl]-1H-pyrazolo[3,4-b]pyrazin-3-amine]",> 20000,,28.2
"O[C@H]1CC[C@H](n2nc(NCc3nc4ccccc4[nH]3)c3ncc(C4CC4)nc32)CC1 [Example 50, trans-4-(3-{[(1H-benzimidazol-2-yl)methyl]amino}-6-cyclopropyl-1H-pyrazolo[3,4-b]pyrazin-1-yl)cyclohexan-1-ol]",> 20000,17.5,
"Cc1c(Cl)ccc2[nH]c(CNc3nn(C4CCN(C)CC4)c4nc(C5CC5)cnc34)nc12 [Example 21, N-[(5-chloro-4-methyl-1H-benzimidazol-2-yl)methyl]-6-cyclopropyl-1-(1-methylpiperidin-4-yl)-1H-pyrazolo[3,4-b]pyrazin-3-amine]",> 20000,26.1,
"CN1CCC(n2nc(NCc3nc4cc(F)ccc4[nH]3)c3ncc(C4CC4)nc32)CC1 [Example 4, 6-cyclopropyl-N-[(5-fluoro-1H-benzimidazol-2-yl)methyl]-1-(1-methylpiperidin-4-yl)-1H-pyrazolo[3,4-b]pyrazin-3-amine]",> 20000,17.1,
"COc1cccc2[nH]c(CNc3nn(C4CCN(C)CC4)c4nc(C5CC5)cnc34)nc12 [Example 2, 6-cyclopropyl-N-[(4-methoxy-1H-benzimidazol-2-yl)methyl]-1-(1-methylpiperidin-4-yl)-1H-pyrazolo[3,4-b]pyrazin-3-amine]",> 20000,8.55,
"OC[C@H]1C[C@@H](n2nc(NCc3nc4ccccc4[nH]3)c3ncc(C4CC4)nc32)C1 [Example 47, [cis-3-(3-{[(1H-benzimidazol-2-yl)methyl]amino}-6-cyclopropyl-1H-pyrazolo[3,4-b]pyrazin-1-yl)cyclobutyl]methanol]",> 20000,13.8,
"CC1CC(n2nc(NCc3nc4ccccc4[nH]3)c3ncc(C4CC4)nc32)CCN1C (racemic) [Example 41, (±)-cis/trans-N-[(1H-benzimidazol-2-yl)methyl]-6-cyclopropyl-1-(1,2-dimethylpiperidin-4-yl)-1H-pyrazolo[3,4-b]pyrazin-3-amine]",> 20000,20.6,
"COc1cccc2[nH]c(CNc3nn(C4CCOCC4)c4nc(C5CC5)cnc34)nc12 [Example 24, 6-cyclopropyl-N-[(4-methoxy-1H-benzimidazol-2-yl)methyl]-1-(oxan-4-yl)-1H-pyrazolo[3,4-b]pyrazin-3-amine]",17900,4.77,
"CN1CCC(n2nc(NCc3nc4ccccc4[nH]3)c3ncc(C4CC4)nc32)C1 (racemic) [Example 35, (±)-N-[(1H-benzimidazol-2-yl)methyl]-6-cyclopropyl-1-(1-methylpyrrolidin-3-yl)-1H-pyrazolo[3,4-b]pyrazin-3-amine]",> 20000,30.2,
"CC1CC(n2nc(NCc3nc4ccccc4[nH]3)c3ncc(C4CC4)nc32)CCO1 (racemic) [Example 44, (±)-cis/trans-N-[(1H-benzimidazol-2-yl)methyl]-6-cyclopropyl-1-(2-methyloxan-4-yl)-1H-pyrazolo[3,4-b]pyrazin-3-amine]",> 20000,24.2,
